The text below walks through data of patent EP1400530A1, “Suppression of immune response via inhibition of cathepsin S” (MASSACHUSETTS INSTITUTE OF TECHNOLOGY, priority 1996, dated 1997).

The subject of the experiment is Peripheral blood mononuclear cells (PBMC's). It is filed as cell-based, human. The conditions noted are these: 3-5 days; 20 µM.

SMILES strings stand for the structures.

On to `CCOC(=O)[C@H]1O[C@@H]1C(=O)N[C@@H](CC(C)C)C(=O)NCCC(C)C` (relative stereo) [E64D], for which the “attenuation of 3H-thymidine uptake response to tetanus toxoid” value is given as “approximately 60%”.
